Test system: HSV-1 gE/gI
Test: Total anti-HSV-1 gE/gI cross-reactive IgG antibodies by ELISA in serum of immunised mice
Format: in vivo, CB6F1 mice
Settings: 0.1 ug LNP/SAM i.m. days 0 & 28, adjuvanted with 2.22 ug of STING agonist at day+0, +1 or +3; 21PII (day 49); FIG. 3
Description: Female CB6F1 inbred mice aged 6-8 weeks old were randomly assigned to study groups (n=8 gr1-10 (groups 1-10) and n=4/gr11 (group 11)) and kept under pathogen-free conditions. Mice ([…]) were intramuscularly (i.m.) immunized, in the gastrocnemius muscle, on days 0 and 28 with 0.1ug of LNP-formulated SAM (25 uL volume) comprising a heterodimer of the HSV-2 gE and gI proteins (LNP/SAM-gE_P317R/gI) and were injected, in the same muscle, with different doses of STING agonist (0.25, 0.74 or 2.22ug) either at the same time (day+0) or 1 or 3 days after each of the two SAM immunizations. […]
Quantification of the total HSV-1 gE/gI-specific IgG antibodies was performed using indirect ELISA. […]
The plates were then washed four times with washing buffer and 2 times with deionised water and incubated for 15 min at RT (room temperature) with 100 uL/well of a solution of 75% single-component TMB peroxidase ELISA substrate diluted in sodium citrate 0.1M pH5.5 buffer. Enzymatic color development was stopped with 100 uL of […] sulfuric acid 1M (H2SO4) per well and the plates were read at an absorbance of 450/620 nm using an ELISA reader. Optical densities (OD) were captured and analysed. […] Antibody titer in the samples was calculated by interpolation of the standard curve. […]

With `CCn1nc(C)cc1C(=O)/N=c1\[nH]c2cc(C(N)=O)cc(OC)c2n1C/C=C/Cn1/c(=N/C(=O)c2cc(C)nn2CC)[nH]c2cc(C(N)=O)cc(OCCCOP(=O)(O)O)c21` [STING, 3-(((E)-6-carbamoyl-3-((E)-4-((E)-5-carbamoyl-2-((1-ethyl-3-methyl-1H-pyrazole-5-carbonyl)imino)-7-methoxy-2,3-dihydro-1H-benzo[d]imidazol-1-yl)but-2-en-1-yl)-2-((1-ethyl-3-methyl-1H-pyrazole-5-carbonyl)imino)-2,3-dihydro-1H-benzo[d]imidazol-4-yl)oxy)propyl] the “GM titers of anti-HSV-1 gE/gI cross reactive IgG antibody relative to unadjuvanted control” value was “increased GM titers of anti-HSV-1 gE/gI cross reactive IgG antibody in all groups”.

From patent US20240285755A1, “Adjuvants” (GlaxoSmithKline Biologicals SA, priority 2021, published 2024)
